Test results: PubChem BioAssay AID179 (DTP/NCI, 2004)
“And” between values parts separate entries of the source, which are not always exact repeats. Identical values can stand only once. The source made the active and inactive calls.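 The calls were made as follows: active = compounds giving half or more protection of infected cells from virus-caused growth loss, again on retest; inactive = the rest.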

Test system: CEM cells HIV-1 protection, formazan growth assay
Assay: NCI AIDS Antiviral Assay
Conditions: for IC50: measured here: growth of uninfected CEM cells
Method in brief: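 Human CEM cells, uninfected and HIV-1-infected, exposed to five drug concentrations; growth measured by soluble formazan assay and scored as percent protection from infection, with protecting compounds retested.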

Compound	EC50 [µM]	IC50	outcome
CC(=O)/C(=C/N1C(=O)CC(=O)NC1=S)C(=O)Nc1ccccc1C	> 200	178 µM	
CC12OOC(c3ccccc31)c1c2ccc2ccccc12 (configuration not stated)			inactive
CCOC(=O)Nc1n[nH]nc1Cl	> 200	> 200 µM	
COc1ccc(NCC(=O)Nn2c(-c3ccccc3)nc3ccccc3c2=O)cc1	> 200	17.8 µM	
CCC(=O)CCCC=C(c1cc(Cl)c(OC)c(C(=O)OC)c1)c1cc(Cl)c(OC)c(C(=O)OC)c1	1.45	40.7 µM	
Cc1nc(Nc2nnc(-c3cc([N+](=O)[O-])cc([N+](=O)[O-])c3C)o2)sc1C(=O)CC(=O)Cc1nc2ccc(Cl)cc2[nH]c1=O	> 57.5	> 57.5 µM	
Cc1c(N(C)C)ccc2c(=O)c3cccc(CC(=O)O)c3oc12	> 741	282 µM	
CCOC(=O)C1(C(=O)OCC)CCC(C(OC)OC)C(CC(=O)OC)C1 (configuration not stated)	> 200	> 200 µM	
CN(C)CCNC(=O)c1cccc(CO)c1[N+](=O)[O-]	> 200	> 200 µM	
N=C1C(=N)c2ccccc2-c2ccccc21	> 200	0.407 µM	
[N-]=[N+]=NC1=CC(=O)c2cccc3cccc1c23	> 75.9	6.92 µM	
CN(C)C12CCCCC1S(=O)(=O)C2 (configuration not stated)	> 891	> 891 µM	
Cc1ccc(S(=O)(=O)CC2CCCn3c2c(C#N)c2ccccc23)cc1 (configuration not stated)	> 200	> 200 µM	
FC(F)(F)c1nc(-c2ccccc2)oc1Sc1oc(-c2ccccc2)nc1C(F)(F)F			inactive
NC(=O)c1ccc(NC=O)cc1	> 1510	977 µM	
COc1ccc(C2SC(N)=Nc3c2c(C)nn3C(=O)Cc2ccccc2)cc1 (configuration not stated)	91.2	355 µM	
[N-]=[N+]=Nc1c(N2CCOCC2)c(Cl)nc2ccccc12	> 200	55 µM	
COC(=O)C1=CC2CC1C(S(=O)(=O)c1ccccc1)C2S(=O)(=O)c1ccccc1 (configuration not stated)	> 100	4.57 µM	
CC1=C(C(=O)O)CCC2(C)c3ccc(C(C)C)c(O)c3CCC12 (configuration not stated)	> 200	46.8 µM	
COC(=O)CC1CN(C(=O)OCc2ccccc2)C(C)(C)O1 (configuration not stated)	> 200	> 200 µM	
Cc1cc(Cl)c(O)c(C2(C(O)c3ccc(O)cc3)NC(=S)NC2=O)c1 (configuration not stated)	> 200	107 µM	

Compound	EC50 [µM]	IC50	outcome
Clc1ccc(CCn2cncn2)cc1	> 537	525 µM	
Cn1c(-c2ccccc2)cc2c3ccsc3c3ccsc3c21	> 200	45.7 µM	
O=C1CC(c2ccc(Cl)cc2)NC(=O)N1CCCl (configuration not stated)	> 200	> 200 µM	
Cc1cc(=O)[nH]c(NN2C(Cl)C(=O)C2c2ccccc2O)n1 (configuration not stated)	> 58.9	3.63 µM	
NC(CSS(=O)(=O)O)=NCCc1ccccc1	> 200	110 µM	
CC12CCC(O1)C1C(=O)OC(=O)C12 (configuration not stated)	> 490	437 µM	
CCN1CC(C)Cn2c(=S)[nH]c3cc(Br)cc1c32 (configuration not stated)	5.01	138 µM	
CC(=O)OCc1cncn1S(=O)(=O)c1ccc(C)cc1	> 200	22.9 µM	
CCOC(=O)C(Oc1ccc(OC)c2c1C(=O)CCC2)c1ccccc1 (configuration not stated)			inactive
COc1cc(N=Nc2ccc3c(c2)Cc2ccccc2-3)c(OC)cc1N	> 200	46.8 µM	
CC(C)C(NCc1c2ccccc2[n+](C)c2ccccc12)C(=O)O (configuration not stated)			inactive
C=CCC(/C=C\CC)(C(=O)O)C(=O)O	> 661	> 661 µM	
CCC(C)C(=O)c1c(O)c(C/C=C(\C)CCC=C(C)C)c(O)c2c(C(O)CC)cc(=O)oc12 (configuration not stated)	> 200	1.55 µM	
COc1cc(O)c(/C=N\O)c(OC)c1	> 912	83.2 µM	
CC(=O)OCC1OC(Sc2nc(-c3ccc(Cl)cc3)c(C#N)c(=O)n2C2OC(COC(C)=O)C(OC(C)=O)C(OC(C)=O)C2OC(C)=O)C(OC(C)=O)C(OC(C)=O)C1OC(C)=O (configuration not stated)	> 100	18.6 µM	inactive
CC(=O)Nc1ccc(/C=C2\C(=O)NC(=S)N2/C=C(\C#N)c2ccc([N+](=O)[O-])cc2)cc1	> 200	72.4 µM	
[Cl-].[Rh+3].c1ccc(-c2ccnc3c2ccc2c(-c4ccccc4)ccnc23)cc1.c1ccc(-c2ccnc3c2ccc2c(-c4ccccc4)ccnc23)cc1.c1ccc(-c2ccnc3c2ccc2c(-c4ccccc4)ccnc23)cc1	> 11	7.08 µM	
COc1cc2c(cc1OC)Cc1cc(OC)c(OC)cc1Cc1cc(OC)c(OC)cc1C2			inactive
CCN(CC)CCC(=O)NC1c2ccc(Cl)cc2Oc2c(C)cccc21 (configuration not stated)	> 200	9.55 µM	
O=c1[nH]nc(-c2ccccc2)c(-c2ccccc2)c1-n1nc(-c2ccccc2)c2ccccc2c1=O	> 10.7	> 10.7 µM	
Cc1cc(N)ccc1N=Nc1ccc(S(=O)(=O)CCOS(=O)(=O)O)cc1	> 2	0.912 µM	

Compound	EC50 [µM]	IC50	outcome
O=NC1(c2ccccc2)CCCCC1[N+](=O)[O-] (configuration not stated)	> 200	> 200 µM	
C[C@]12CC[C@@H]3c4cc(Br)c(O)c(Br)c4CC[C@H]3[C@@H]1CC(Br)C2=O (some centres not stated)	> 200	3.47 µM	
Nc1nc(N)c(CCCCc2ccccc2)c(Cc2ccccc2)n1			inactive
CC(C)SC(NC(=O)C1C(C)(C)CCC1(C)C)C(=O)O (configuration not stated)	> 200	> 200 µM	
COc1ccc(C(c2ccccc2)(c2ccc(OC)cc2)N2C(=O)NC3C(CCCCC(=O)NCCCCCCOP(OCCC#N)N(C(C)C)C(C)C)SCC32)cc1 (configuration not stated)	> 4.47	> 4.47 µM	
O=C(/C=C/c1ccccc1)c1ccc(Sc2ccccc2)cc1	> 2	0.107 µM	
COc1cc2c(cc1OC)C1Cc3cc(OC)c(OC)cc3C(C2)N1C	> 708	52.5 µM and 64.6 µM	
C#CC1(O)CC[C@H]2[C@@H]3CCC4=CCCC[C@@H]4[C@H]3CC[C@@]21C (some centres not stated)	> 200	30.9 µM	
CCOC(=O)C1CCCC1S(=O)(=O)c1ccc(C)cc1 (configuration not stated)	> 200	> 200 µM	
CC(=O)OCC(=O)[C@@]1(O)CC[C@H]2[C@@H]3C[C@H](C)C4=CC(=O)C=C[C@]4(C)[C@@]3(F)[C@@H](O)C[C@@]21C			inactive
COc1cc(C2c3c(ccc4ccccc34)C(=O)C3CCC(=O)N32)cc(OC)c1O (configuration not stated)	> 25.1	1.29 µM	
c1cc(-c2ncc3ccncc3n2)ccn1	> 64.6	> 64.6 µM	
COC(=O)NC(Nc1ccc(Cl)cc1Cl)(C(F)(F)F)C(F)(F)F			inactive
Cc1ccc(NC(=O)CCCC(=O)CC(=O)c2ccc(Br)cc2)cc1	> 309	> 309 µM	
COC(=O)/C(=N/Nc1cccc(Cl)c1)C(C(=O)C(=O)Nc1cccc(Cl)c1C)c1nc2ccccc2nc1C (configuration not stated)	> 12.9	> 12.9 µM	
NCC(O)c1cc(I)c(Oc2ccc(O)cc2)c(I)c1 (configuration not stated)	> 200	15.5 µM	
C1CSCCSCCCS[C@@H]2CCCCC2SC1 (some centres not stated)	> 100	> 100 µM	
COc1c(OCc2ccccc2)c(OCc2ccccc2)cc(COS(=O)(=O)O)c1-c1c(COS(=O)(=O)O)cc(OCc2ccccc2)c(OCc2ccccc2)c1OC	> 1.58	> 1.58 µM	
O=C1C2CCSCN2C(=O)N1c1ccccc1 (configuration not stated)	> 40.7	> 40.7 µM	
CCOC12SC(=Nc3ccc(C)cc3)NN1C(=S)N(C)N=C2C (configuration not stated)	> 200	> 200 µM	
CC(C)=CCC12Cc3ccc(O)cc3C(C(C)CN1)C2C (configuration not stated)	> 200	> 200 µM	

Compound	EC50 [µM]	IC50	outcome
Clc1ccccc1/C=C1\c2ccccc2-c2nc3ccccc3nc21	> 200	> 200 µM	
CC(=O)OCc1nc2ncnc(N)c2[nH]1	> 631	> 631 µM	
Cn1nc(-c2ccccc2)c(N=[N+]=[N-])cc1=O	> 200	> 200 µM	
CCOC(=O)c1nnsc1NC(=O)NN	> 200	> 200 µM	
CC(=O)N1CCN(CCCCN2c3ccccc3Sc3cc(N=[N+]=[N-])ccc32)CC1	> 200	6.61 µM	
O=C1Cc2c([nH]c3ccccc23)C2(CC3CCCCN13)OCCO2 (configuration not stated)	> 200	182 µM	
CCN1C[C@]2(C)CC[C@H](OC)C34C5C[C@@H]6[C@@H](OC)C[C@@](OC)(C5[C@H]6OCc5ccccc5)C(C13)[C@H](OC(C)=O)[C@@H]42 (some centres not stated)	> 200	105 µM	
N#Cc1c(-c2ccccc2)[nH]c(=O)n(C2OC(CO)C(O)C(O)C2O)c1=O (configuration not stated)	> 200	> 200 µM	inactive
N/N=C(\C(=O)Nc1c(Cl)cc([N+](=O)[O-])cc1Cl)C(c1cnc2ccc([N+](=O)[O-])cc2n1)[N+](=O)[O-] (configuration not stated)	> 70.8	> 70.8 µM	
Nc1ccc(S(=O)(=O)Nc2nccs2)cc1	> 200	> 200 µM	
O=C1CSC(c2cccc(Cl)c2)N1c1ccc(-c2ccc(-n3c(-c4ccccc4)nc4ccccc4c3=O)cc2)cc1 (configuration not stated)	> 200	21.9 µM	
COC(=O)C1CCC(=O)N1CN(C(C)=O)c1cccc(O)c1 (configuration not stated)	> 200	> 200 µM	
NC(=S)N/N=C(\CC1OC(=O)c2ccccc21)c1ccc(Cl)cc1 (configuration not stated)	> 83.2	7.24 µM	
O=C1NC(=O)C(=Cc2ccccc2F)C(=O)N1	> 1070	> 1070 µM	
COC(=O)C(/C(=N/N)C(=O)Nc1cc(Cl)c(Cl)cc1Cl)c1nc2ccc(Cl)cc2[nH]c1=O (configuration not stated)	> 50.1	> 50.1 µM	
O=C(O)c1cccc(/C=C/c2ccc(N=Nc3cc(S(=O)(=O)O)c4cccnc4c3O)cc2C(=O)O)c1	166	> 200 µM	
O=C(Nc1nc(=S)[nH][nH]1)C(=O)C(c1cnc2ccc([N+](=O)[O-])cc2n1)[N+](=O)[O-] (configuration not stated)	> 447	79.4 µM	
CN1C(=S)C2=C(c3ccccc3)N(C)C(=S)C2=C1c1ccccc1	102	> 200 µM	
[N-]=[N+]=NC1C2CC3CC(C2)CC1C3 (configuration not stated)	> 77.6	> 77.6 µM	
N#CC(C(=N/NC(N)=S)/C(=N\NC(N)=S)C(C#N)c1ccccc1)c1ccccc1 (configuration not stated)	> 97.7	47.9 µM	
CCc1cc(Cc2cc(CC)c(NC(=O)C(=O)Cc3ccccn3)c(CC)c2Cl)c(Cl)c(CC)c1NC(=O)C(=O)Cc1ccccn1	> 72.4	> 72.4 µM	
